Earlier results on one compound are cited in US20020082283A1, “Nitrogen-containing compounds and their use as glycine transport inhibitors” (Gliatech, Inc., priority 2000, published 2002).

This data set deals with NMDA receptor. The following applies: in vitro at concentrations at which clinical efficacy is seen.

With `O=C(CCCN1CCC(O)(c2ccc(Cl)cc2)CC1)c1ccc(F)cc1` [haloperidol], the “increase in NMDA receptor activity” value is listed as approximately 40%.
